# Where two headings read alike, the source gives them in different places.
# Legend:
# [1] = biological target: FLAG-tagged Vanin-1 (AA 22-493, T26I) (Homo sapiens (Human), UniProt O95497, T26I); assay: Vanin-1 enzymatic assay (pantothenic acid formation, RapidFire Mass Spectrometry); format: biochemical; conditions: read-out: VNN 1 IC50
# Experimental: The test compounds are dissolved in 100% DMSO at a concentration of 10 mM and in a first step diluted in DMSO to a concentration of 5 mM, followed by serial dilution steps in 100% DMSO. Dilution factor and number of dilution steps may vary according to needs. Typically 8 different concentrations by 1:5 dilutions are prepared, a further intermediate dilutions of the substances is carried out with assay buffer resulting in 1% final DMSO concentration in the assay.
# Method 1): 0.15 nM of FLAG-tagged Vanin-1 (AA 22-493, T26I, produced internally) and test compounds are incubated at room temperature for 15 minutes in assay buffer (1 mM DTT, 0.0025% Brij-35, 50 mM HEPES, pH7.5). 3 μM D-Pantethine (Sigma, Cat#P2125-5G) in assay buffer is added and incubated for additional 30 minutes at room temperature. Reaction is stopped by adding equal volume of stop solution as the reaction mixture to reach 5 nM Nevirapine (as an internal standard) and 0.5% TFA. Assay plates are centrifuged for 2 minutes and the formation of pantothenic acid is detected by RapidFire Mass Spectrometry (mobile phase A: 0.1% formic acid in water, mobile phase B: 100% methanol) using graphitic carbon cartridge (Agilent Cat #G9206A).
# Method 2): 0.1 nM of FLAG-tagged Vanin-1 (AA 22-493, T26I, produced internally) and test compounds are incubated at room temperature for 20 minutes in assay buffer (1 mM DTT, 0.0025% Brij-35, 50 mM HEPES, pH7.5). D-Pantethine (Sigma, Cat#P2125-5G) in assay buffer is added (final concentration 3 μM) and incubated for additional 30 minutes at room temperature. Total assay volume typically is 40 μl but might be adjusted according to needs. Reaction is stopped by adding equal volume of stop solution as the reaction mixture to reach 100 nM HD-pantothenic acid (as an internal standard) and 1% TFA. Assay plates are centrifuged for 2 minutes and the formation of pantothenic acid is detected by RapidFire Mass Spectrometry (mobile phase A: 0.1% formic acid and 0.01% trifluoroacetic acid in water; mobile phase B: 47.5% acetonitrile, 47.5% methanol, 0.1% formic acid and 0.01% trifluoroacetic acid in water) using a C18, 12 μL cartridge (Agilent Cat #G9205A).
# The values given in Table I result from measurements of one or more samples. In case of multiple measurements the geometric mean values determined by method 1 and/or method 2 are given.
# human whole blood = assay: Human Whole Blood assay (HWB; pantothenic acid formation from D-Pantethine); format: cell-based; conditions: 10 μM D-Pantethine, 30 minutes at room temperature, geometric mean if multiple measurements
# Experimental: 250 μl human whole blood and 7 μl pre-diluted compound in RPMI 1640 media are incubated at room temperature for 15 minutes on an orbital shaker. 10 μl of D-Pantethine (Sigma, Cat#P2125-5G) is added, resulting in 10 μM final concentration, for additional 30 minutes incubation at room temperature. The reaction is stopped by placed on ice for 5 minutes. Assay plates are centrifuged at 1800 rpm at 4° C. for 10 minutes. 80 μl of plasma is mixed with 80 μl of ice-cold acetonitrile and is left on ice for 5 minutes. The reaction mixture is centrifuged at 4000 rpm for 10 min at 4° C. 50 μl of the supernatant is mixed with 150 μl of ice-cold H2O. The above solution is mixed with equal volume of stop solution to reach 5 nM Nevirapine (as an internal standard) and 0.4% TFA. The mixture is centrifuged at 4000 rpm for 10 minutes. The formation of pantothenic acid is detected by RapidFire Mass Spectrometry (mobile phase A: 0.1% Formic acid in water, mobile phase B: 100% Methanol) using graphitic carbon cartridge (Agilent Cat #G9206A). Please see Table I for results. The values given in Table I result from measurements of one or more samples. In case of multiple measurements the geometric mean values are given.
# [2] = VNN1-assay methods 1 + 2: geometric mean of values determined by method 1 and method 2
# [3] = VNN1-assay method 1: 0.15 nM Vanin-1, 15 min preincubation, 3 μM D-Pantethine, geometric mean if multiple measurements
# [4] = VNN1-assay method 2: 0.1 nM Vanin-1, 20 min preincubation, 3 μM D-Pantethine, geometric mean if multiple measurements
# FLAG-tagged Vanin-1 (AA 22-493, T26I), sequence (O95497 22-493 T26I): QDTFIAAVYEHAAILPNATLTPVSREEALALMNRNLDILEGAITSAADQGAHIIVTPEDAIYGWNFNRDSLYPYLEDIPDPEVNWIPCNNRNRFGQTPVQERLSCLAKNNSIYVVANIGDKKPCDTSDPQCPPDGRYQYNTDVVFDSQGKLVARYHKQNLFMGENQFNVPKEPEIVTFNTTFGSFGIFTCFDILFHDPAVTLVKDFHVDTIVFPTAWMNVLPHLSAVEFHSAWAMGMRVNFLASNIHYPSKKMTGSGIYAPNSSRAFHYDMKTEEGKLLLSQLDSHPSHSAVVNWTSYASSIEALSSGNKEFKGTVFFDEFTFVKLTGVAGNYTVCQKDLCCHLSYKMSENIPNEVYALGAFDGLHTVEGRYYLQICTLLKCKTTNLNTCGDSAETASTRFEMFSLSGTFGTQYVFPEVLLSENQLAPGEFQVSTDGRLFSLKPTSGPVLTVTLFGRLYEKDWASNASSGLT
"IC50 [1, 2] [nM]","IC50 (human whole blood; Homo sapiens, 0.5 h) [nM]","IC50 [1, 3] [nM]","IC50 [1, 4] [nM]",Compound,IC50 (human whole blood) [nM]
0.2,6.3,,,CC(=O)N(C)[C@H]1CCN(C(=O)c2cnc3c(c2)OCCC2(CC2)N3)C1 [Example 37],
,,17.2,,CC(C)[C@@H]1COc2cc(C(=O)N3CCC(c4ccncc4)C3)cnc2N1 (some centres unmarked) [Example 8],
,22,1.3,,CC[C@H]1COc2cc(C(=O)N3CC[C@H](N(C)C(C)=O)C3)cnc2N1 [Example 4],
1.7,87,,,C[C@H]1COc2cc(C(=O)N3CCC(c4ccncc4)C3)cnc2N1 (some centres unmarked) [Example 40],
0.4,10,,,CC(=O)N(C)[C@H]1CCN(C(=O)c2cnc3c(c2)OCC2(CC2)N3)C1 [Example 21],
,23,,,CC(=O)N(C)[C@H]1CCN(C(=O)c2cnc3c(c2)OCCCN3)C1 [Example 44],
1750,,,,CC(=O)N(C)[C@H]1CCN(C(=O)c2cnc3c(c2)OC[C@@H](c2ccccc2)N3)C1 [Example 31],
,50,,8.1,CN1C(=O)CC[C@]12CCN(C(=O)c1cnc3c(c1)OCCC1(CC1)N3)C2 [Example 23],
3.3,20,,,CC[C@@H]1COc2cc(C(=O)N3CC[C@H](N(C)C(C)=O)C3)cnc2N1 [Example 1],
,12,,,CC(=O)N(C)[C@H]1CCN(C(=O)c2cnc3c(c2)OCC(C)(C)N3)C1 [Example 14],
,23,1.5,,CC(=O)N(C)[C@H]1CCN(C(=O)c2cnc3c(c2)OC[C@H](C(C)C)N3)C1 [Example 9],
1.8,23,,,CC(=O)N(C)[C@H]1CCN(C(=O)c2cnc3c(c2)OC[C@H](C)N3)C1 [Example 13],
,18,,,CC(=O)N(C)[C@H]1CCN(C(=O)c2cnc3c(c2)O[C@H](CO)CN3)C1 [Example 41],
,11,,1.09,CN1C(=O)CCC12CCN(C(=O)c1cnc3c(c1)OCCC1(CC1)N3)C2 (centres unmarked) [Example 27],
,66,,,O=C(c1cnc2c(c1)O[C@H](CO)CN2)N1CCC(c2ccncc2)C1 (some centres unmarked) [Example 43],
,5.9,,0.2,O=C(c1cnc2c(c1)OCCC1(CC1)N2)N1CC[C@H](N2CCOC2=O)C1 [Example 26],
,99,8.9,,CC[C@@H]1COc2cc(C(=O)N3CCC(c4ccncc4)C3)cnc2N1 (some centres unmarked) [Example 6],
,26,3.6,,CC(=O)N(C)[C@H]1CCN(C(=O)c2cnc3c(c2)OC[C@@H](C(C)C)N3)C1 [Example 2],
3.1,76,,,CC[C@H]1COc2cc(C(=O)N3CCC(c4ccncc4)C3)cnc2N1 (some centres unmarked) [Example 5],
,,0.4,,"O=C(c1cnc2c(c1)OCC1(CC1)N2)N1CCC(c2ccncc2)C1 (single isomer, unassigned) [Example 22]",37

"IC50 [1, 2] [nM]","IC50 (human whole blood; Homo sapiens, 0.5 h) [nM]","IC50 [1, 3] [nM]","IC50 [1, 4] [nM]",Compound,IC50 (human whole blood) [nM]
,14,,,CC(=O)N(C)[C@H]1CCN(C(=O)c2cnc3c(c2)O[C@H](C)CN3)C1 [Example 32],
2.4,43,,,CC(=O)N(C)[C@H]1CCN(C(=O)c2cnc3c(c2)OC[C@H](c2ccccc2)N3)C1 [Example 30],
26.1,190,,,CC(=O)N(C)[C@H]1CCN(C(=O)c2cnc3c(c2)O[C@@H](C)CN3)C1 [Example 35],
,120,,,CC(=O)N(C)[C@H]1CCN(C(=O)c2cnc3c(c2)OCCN3)C1 [Example 39],
3.5,44,,,C[C@H]1CNc2ncc(C(=O)N3CCC(c4ccncc4)C3)cc2O1 (some centres unmarked) [Example 34],
,34,2.5,,C[C@@H]1CNc2ncc(C(=O)N3CCC(c4ccncc4)C3)cc2O1 (some centres unmarked) [Example 33],
1.1,16,,,CC(=O)N(C)[C@H]1CCN(C(=O)c2cnc3c(c2)OCC(C)(C)CN3)C1 [Example 42],
,8.8,,0.7,CN(C(=O)C1CC1)[C@H]1CCN(C(=O)c2cnc3c(c2)OCC2(CC2)N3)C1 [Example 17],
,7.8,,0.7,O=C(c1cnc2c(c1)OCC1(CC1)N2)N1CC[C@H](N2CCCC2=O)C1 [Example 15],
,168,3.8,,C[C@@H]1COc2cc(C(=O)N3CCC(c4cccnc4)C3)cnc2N1 (some centres unmarked) [Example 28],
3.3,28,,,CC(=O)N(C)[C@H]1CCN(C(=O)c2cnc3c(c2)OC[C@@H](C)N3)C1 [Example 29],
,8.9,,0.6,O=C(c1cnc2c(c1)OCC1(CC1)N2)N1CC[C@H](N2CCOC2=O)C1 [Example 16],
,12,,0.9,CN(C(=O)C1COC1)[C@H]1CCN(C(=O)c2cnc3c(c2)OCC2(CC2)N3)C1 [Example 18],
,39,,2.3,CN([C@H]1CCN(C(=O)c2cnc3c(c2)OCC2(CC2)N3)C1)S(=O)(=O)C1CC1 [Example 19],
,3.1,,0.1,O=C(c1cnc2c(c1)OCCC1(CC1)N2)N1CC[C@H](N2CCCC2=O)C1 [Example 25],
,6.5,,0.6,CN1C(=O)CC[C@@]12CCN(C(=O)c1cnc3c(c1)OCCC1(CC1)N3)C2 [Example 24],
,210,,,O=C(c1cnc2c(c1)OCCN2)N1CCC(c2ccncc2)C1 (centres unmarked) [Example 38],
,,1.9,,"O=C(c1cnc2c(c1)OCC1(CC1)N2)N1CCC(c2ccncc2)C1 (single isomer, unassigned) [Example 20]",130
,146,2.4,,CC(C)[C@H]1COc2cc(C(=O)N3CCC(c4ccncc4)C3)cnc2N1 (some centres unmarked) [Example 10],

Compound,"IC50 [1, 2] [nM]","IC50 (human whole blood; Homo sapiens, 0.5 h) [nM]","IC50 [1, 3] [nM]","IC50 [1, 4] [nM]",IC50 (human whole blood) [nM]
O=C(c1cnc2c(c1)OC[C@@H](c1ccccc1)N2)N1CCC(c2ccncc2)C1 (some centres unmarked) [Example 7],,,6200,,
"O=C(c1cnc2c(c1)OC[C@H](c1ccccc1)N2)N1CCC(c2ccncc2)C1 (single isomer, unassigned) [Example 11]",,,19,,3700
"O=C(c1cnc2c(c1)OC[C@H](c1ccccc1)N2)N1CCC(c2ccncc2)C1 (single isomer, unassigned) [Example 12]",,,1.8,,330
